In ChEMBL document CHEMBL1201862, “PubChem BioAssay data set” (2004):
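Exposure lasted 48 hours, with cells grown in 96-well plates and compounds tested at five concentrations. GI50 = concentration required for 50% inhibition of growth.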 Calls of active or inactive are those of the source. Cut-off read from the data, not from the text of the source: active = GI50 up to about 1.1 µM and inactive = higher.

Experiments:
Assay in all cases: growth of human tumour cells (NCI), 48 h
DMS-114 = system: DMS-114
LXFL 529 = system: LXFL 529
RXF 631 = system: RXF 631
SNB-78 = system: SNB-78
DMS-273 = system: DMS-273
M19-MEL = system: M19-MEL
HOP-18 = system: HOP-18
KM-20L2 = system: KM-20L2
XF498 = system: XF498

Row | SMILES | GI50 (DMS-114) | GI50 (LXFL 529) | GI50 (RXF 631) | GI50 (SNB-78) | GI50 (DMS-273) | GI50 (M19-MEL) | GI50 (HOP-18) | GI50 (KM-20L2) | GI50 (XF498)
1 | c1ccc(-c2csc3ncn4cnnc4c23)cc1 | 57.9 µM (inactive) | 92.9 µM (inactive) | 95.7 µM (inactive) | > 100 µM (inactive) | 72.8 µM (inactive) | > 100 µM (inactive) | 52 µM (inactive) | > 100 µM (inactive) | –
2 | CCCCCCCCCC(=O)CC(=O)c1c(O)cccc1O | 30.1 µM (inactive) | 38.8 µM (inactive) | – | 40 µM (inactive) | 20.8 µM (inactive) | 38.5 µM (inactive) | 25.4 µM (inactive) | 33.8 µM (inactive) | 15.3 µM (inactive)
3 | COc1nc2c(nc(N)n2C2OC(CO)C(O)C(O)C2O)c(=O)n1C (centres undefined) | > 100 µM (inactive) | > 100 µM (inactive) | > 100 µM (inactive) | > 100 µM (inactive) | – | > 100 µM (inactive) | > 100 µM (inactive) | > 100 µM (inactive) | 75.3 µM (inactive)
4 | C=C1C(=O)OC2/C=C(\COC(C)=O)CCC(OC(C)=O)C3=CC(OC3=O)C12 (centres undefined) | 1.47 µM (inactive) | 1.67 µM (inactive) | 8.13 µM (inactive) | 2.67 µM (inactive) | 6.81 µM (inactive) | – | – | 6.98 µM (inactive) | 2.39 µM (inactive)
5 | O=C(/C=C/c1ccc(OCC(=O)N2CCN(c3ccccc3)CC2)cc1)c1ccccc1 | – | 19.9 µM (inactive) | – | > 44.5 µM (inactive) | 2.99 µM (inactive) | 11.3 µM (inactive) | > 50 µM (inactive) | 8.95 µM (inactive) | –
6 | Cc1cccc(NC(=O)CSc2nnc(-c3ccc(/N=C\c4ccc(Cl)cc4)cc3)o2)c1 | > 100 µM (inactive) | > 100 µM (inactive) | – | > 100 µM (inactive) | > 100 µM (inactive) | > 100 µM (inactive) | > 100 µM (inactive) | > 100 µM (inactive) | > 100 µM (inactive)
7 | CC1=C(C(=O)Nc2ccccc2)C(c2ccc(C3C(C(=O)Nc4ccccc4)=C(C)NC(C)=C3C(=O)Nc3ccccc3)cc2)C(C(=O)Nc2ccccc2)=C(C)N1 | 3.83 µM (inactive) | 2.1 µM (inactive) | – | – | 2.62 µM (inactive) | 3.5 µM (inactive) | 8.22 µM (inactive) | 2.04 µM (inactive) | 7.36 µM (inactive)
8 | CNC(=S)/N=C(\N)N(C)C | > 100 µM (inactive) | > 100 µM (inactive) | – | > 100 µM (inactive) | > 100 µM (inactive) | > 100 µM (inactive) | > 100 µM (inactive) | > 100 µM (inactive) | > 100 µM (inactive)
9 | CCCCCCCCCCCCOC(=S)NCCCC | 19.7 µM (inactive) | 28.1 µM (inactive) | 20.7 µM (inactive) | 34.4 µM (inactive) | 18.3 µM (inactive) | 32.7 µM (inactive) | 28.1 µM (inactive) | 18.7 µM (inactive) | 16.4 µM (inactive)
10 | CC(C)C(=O)N1Cc2cc(Cl)cc(Cl)c2OC(=O)c2ccccc21 | 30.1 µM (inactive) | 18.3 µM (inactive) | 40.3 µM (inactive) | 67.9 µM (inactive) | 38.7 µM (inactive) | – | 25.6 µM (inactive) | 23.7 µM (inactive) | –
11 | CCOC(=O)[C@@]1(C)C=C2O[C@@H]3OC4(CCCCC4)O[C@@H]3C2=C2C(O)=CC=C(O)[C@]21C(=O)OC | > 68.1 µM (inactive) | > 68.1 µM (inactive) | > 68.1 µM (inactive) | > 68.1 µM (inactive) | > 68.1 µM (inactive) | > 68.1 µM (inactive) | > 68.1 µM (inactive) | > 68.1 µM (inactive) | > 68.1 µM (inactive)
12 | CCOC(=O)NC(=O)c1cn(CCCCCCCCCCC(=O)NCCCN2CCN(CCCNC(=O)CCCCCCCCCCn3cc(C(=O)NC(=O)OCC)c(=O)[nH]c3=O)CC2)c(=O)[nH]c1=O | > 100 µM (inactive) | > 100 µM (inactive) | – | > 100 µM (inactive) | > 100 µM (inactive) | > 100 µM (inactive) | > 100 µM (inactive) | > 100 µM (inactive) | > 100 µM (inactive)
13 | CC1=C(/C=C/C(C)=C/C2CC(N(C)C)=CC(=O)O2)C(C)(C)CCC1 (centres undefined) | 10.8 µM (inactive) | 11.7 µM (inactive) | 13.1 µM (inactive) | 19.5 µM (inactive) | 13.4 µM (inactive) | 14.3 µM (inactive) | 13.6 µM (inactive) | – | 12.4 µM (inactive)
14 | Nc1nc(-c2ccc(Cl)c([N+](=O)[O-])c2)cs1 | 64.7 µM (inactive) | > 100 µM (inactive) | > 100 µM (inactive) | 52.5 µM (inactive) | > 100 µM (inactive) | > 100 µM (inactive) | 35.4 µM (inactive) | > 100 µM (inactive) | 27.5 µM (inactive)
15 | CCOC(=O)C(C)c1cc(C2(C)OCCO2)c(C)o1 (centres undefined) | > 100 µM (inactive) | > 100 µM (inactive) | > 100 µM (inactive) | > 100 µM (inactive) | > 100 µM (inactive) | > 100 µM (inactive) | > 100 µM (inactive) | > 100 µM (inactive) | > 100 µM (inactive)
16 | C/C(=N\NC(N)=S)c1ccc(/C(C)=N/NC(N)=S)cc1 | > 100 µM (inactive) | > 100 µM (inactive) | > 100 µM (inactive) | – | – | > 100 µM (inactive) | > 100 µM (inactive) | > 100 µM (inactive) | > 100 µM (inactive)
17 | Cc1c(C)c(CC(=O)N2CC2)c(C)c(C)c1CC(=O)N1CC1 | 11.5 µM (inactive) | 14.1 µM (inactive) | – | 13.7 µM (inactive) | 2.18 µM (inactive) | 12.9 µM (inactive) | 28.4 µM (inactive) | 17.3 µM (inactive) | –
18 | COC(=O)C(CCC1(C)OCCO1)=[N+]=[N-] | > 100 µM (inactive) | > 100 µM (inactive) | > 100 µM (inactive) | > 100 µM (inactive) | > 100 µM (inactive) | – | > 100 µM (inactive) | > 100 µM (inactive) | > 100 µM (inactive)
19 | COc1c(OC(C)=O)c(OC(C)=O)cc2c1-c1ccc(SC)c(=O)cc1C(NC(C)=O)CC2 (centres undefined) | – | 0.368 µM (active) | – | 0.287 µM (active) | 0.895 µM (active) | 0.57 µM (active) | > 100 µM (inactive) | 0.7 µM (active) | 1.04 µM (active)
20 | CCOC(=O)N(c1ccccc1)N(CC)C(=O)/C(C)=N/Nc1ccc([N+](=O)[O-])cc1 | 17.9 µM (inactive) | 16.6 µM (inactive) | – | 20.8 µM (inactive) | 15.6 µM (inactive) | 17.5 µM (inactive) | 19.7 µM (inactive) | 17.1 µM (inactive) | 17.9 µM (inactive)
21 | Nc1ccc(/N=N/c2ccc(-c3ccc(/N=N/c4c(S(=O)(=O)O)cc5cc(S(=O)(=O)O)c(/N=N/c6ccc([N+](=O)[O-])cc6)c(N)c5c4O)cc3)cc2)c2cc(S(=O)(=O)O)ccc12 | – | > 100 µM (inactive) | – | > 100 µM (inactive) | > 100 µM (inactive) | > 100 µM (inactive) | – | > 100 µM (inactive) | > 100 µM (inactive)
22 | c1cc(C2O[C@H]3CCCN3[C@@H]2c2ccncc2)ccn1 (some centres undefined) | > 100 µM (inactive) | > 100 µM (inactive) | – | > 100 µM (inactive) | > 100 µM (inactive) | > 100 µM (inactive) | – | > 100 µM (inactive) | > 100 µM (inactive)
23 | COc1ccc(C(O)c2cc(OC)c(OC)c(OC)c2)cc1 (centres undefined) | 6.84 µM (inactive) | 40.9 µM (inactive) | 30.1 µM (inactive) | 44.4 µM (inactive) | 4.21 µM (inactive) | 21 µM (inactive) | 39 µM (inactive) | – | –
24 | COc1cc(/C=C(\C#N)C(N)=C(C#N)C#N)cc(O)c1O | 47 µM (inactive) | > 100 µM (inactive) | – | > 100 µM (inactive) | > 100 µM (inactive) | > 100 µM (inactive) | – | > 100 µM (inactive) | > 100 µM (inactive)
25 | COc1cc([C@@H]2c3cc4c(c(O)c3C[C@H]3COC(=O)[C@@H]32)OCO4)cc(OC)c1O | < 0.02 µM (active) | 0.00257 µM (active) | – | < 0.02 µM (active) | < 0.02 µM (active) | 0.237 µM (active) | < 0.02 µM (active) | – | –
